Experimental data reported in patent US5550148A, “PAF synthesis modulators” (ZymoGenetics, Inc., priority 1995, dated 1996).

Assays:
P59^fyn tyrosine kinase = P59^fyn tyrosine kinase (Homo sapiens, UniProt P06241); experiment: inhibition of P59^fyn tyrosine kinase; assay type: biochemical; settings: 0.5% DMSO
Protocol: (§1) Compound 1494 was assayed for a variety of inhibitory activities. […] Displacement of [^3 H]pyrilamine from histamine H1 binding sites (IC50 of about 3 μM) was noted, but may be unrelated to functional receptor agonism or antagonism. Displacement of [3H]dexamethasone from glucocorticoid binding sites (IC50 of about 3 μM) was also observed. Inhibition of the following activities was also detected: […]

[1] = system: de novo PAF-acetyltransferase; experiment: inhibition of de novo PAF-acetyltransferase (de novo pathway of PAF synthesis); assay type: biochemical
[2] = system: remodeling PAF-acetyltransferase; experiment: inhibition of remodeling PAF-acetyltransferase (remodeling pathway of PAF synthesis); assay type: biochemical
Description: A second screening assay detects modulators of the formation of PAF from lyso-PAF and acetyl-CoA by an enzyme termed PAF acetyltransferase. This is the second step in the remodeling pathway of PAF synthesis, described by Wykle, J. Biol. Chem. 255:10256-60, 1980.
The remodeling pathway of PAF synthesis is the pathway involved in pathological processes, such as inflammation, and particularly in neutrophil-mediated processes. The de novo pathway of PAF synthesis is required for normal physiological functions. Therefore, a desirable, anti-inflammatory, therapeutically effective PAF modulator will down-regulate the remodeling pathway, but will have little or no effect on the de novo pathway of PAF synthesis.
Briefly, to assay the remodeling pathway acetyl-transferase, […] of […] bovine serum albumin (fatty acid free; Sigma) in PBS (120 mM NaCl, 2.7 mM KCl, 10 mM phosphate buffer, pH 7.4, supplemented with 10 μM CaCl2) was added to each well of a 96-well, flat-bottom microtiter plate. The plate was incubated for 15 min at ambient temperature, then the wells were aspirated and 50 μl of PBS was added to each well. Duplicate or triplicate test samples in DMSO (≤5% (v/v)) were added to each well.
HL-60 cells (a stable, transformed hematopoietic cell line) were combined with PBS containing 0.05% TWEEN-20 and mixed vigorously at 500 rpm for 30 sec. This treatment permeabilized the HL-60 cells. An aliquot (50 μl) of HL-60 lysate so formed was added to each well of the plate, and the plate was incubated for 5 min at ambient temperature with gentle shaking.
PAF acetyl-transferase substrates were added to each well, such that 25 μl of the following solution was added per well: Lyso-PAF ([…]; Calbiochem, La Jolla, Calif.), acetyl-CoA ([…]; Calbiochem), and ^3 H-acetyl-CoA (25 μCi/ml; Amersham). The plate was gently mixed for 45 sec and then incubated at 37° C. for 20 min.
Newly synthesized PAF was extracted by adding 1.25 mg of AMBERCHROM CG-71 resin (Supelco, Bellefonte, Pa.) in 25 μl of distilled water to each well. The plate was gently shaken for 1 min, following which the resin was collected on a 102 mm×258 mm glass-fiber filter using a MICRO-CELL HARVESTER (Skatron, Waltham, Mass.). The filter was washed with 500 ml water to remove unincorporated ^3 H-acetyl-CoA. Following the wash, the filter was dried in a microwave oven for 5-10 min.
After the filter was dried, it was soaked in 10 ml of Beta Plate scintillation fluid (LKB, Loughborough, England), and bound counts were determined in a TOP COUNT scintillation counter (Pharmacia). Percentage inhibition was determined by dividing the average of 2 or 3 replicate wells by the average of 3 control wells (5% DMSO alone), and multiplying by 100.

EGF tyrosine kinase = EGF tyrosine kinase (Homo sapiens, UniProt P00533); experiment: inhibition of EGF tyrosine kinase; assay type: biochemical; settings: 0.5% DMSO
Protocol: as §1

PAF binding sites = PAF binding sites (Homo sapiens, UniProt P25105); experiment: displacement of [^3 H]PAF from PAF binding sites; settings: 0.01, 0.1, 1 and 10 μM tested, 0.5% DMSO
Protocol: as §1

[3] = biological target: histamine H1 binding sites (Homo sapiens, UniProt P35367); experiment: displacement of [^3 H]pyrilamine from histamine H1 binding sites; settings: 0.01, 0.1, 1 and 10 μM tested, 0.5% DMSO
Protocol: as §1

T cell = T cell proliferation in the presence of ConA; assay type: cell-based
solubility in 0.5% DMSO = assay type: physicochemical; settings: at 0.01, 0.1, 1 and 10 μM
Cyclooxygenase = experiment: inhibition of Cyclooxygenase; assay type: biochemical; settings: 0.5% DMSO
Protocol: as §1

[4] = biological target: T1, glucocorticoid binding sites (Homo sapiens, UniProt P04150); experiment: displacement of [3H]dexamethasone from glucocorticoid binding sites; settings: 0.01, 0.1, 1 and 10 μM tested, 0.5% DMSO
T1 sequence (P04150 1-777): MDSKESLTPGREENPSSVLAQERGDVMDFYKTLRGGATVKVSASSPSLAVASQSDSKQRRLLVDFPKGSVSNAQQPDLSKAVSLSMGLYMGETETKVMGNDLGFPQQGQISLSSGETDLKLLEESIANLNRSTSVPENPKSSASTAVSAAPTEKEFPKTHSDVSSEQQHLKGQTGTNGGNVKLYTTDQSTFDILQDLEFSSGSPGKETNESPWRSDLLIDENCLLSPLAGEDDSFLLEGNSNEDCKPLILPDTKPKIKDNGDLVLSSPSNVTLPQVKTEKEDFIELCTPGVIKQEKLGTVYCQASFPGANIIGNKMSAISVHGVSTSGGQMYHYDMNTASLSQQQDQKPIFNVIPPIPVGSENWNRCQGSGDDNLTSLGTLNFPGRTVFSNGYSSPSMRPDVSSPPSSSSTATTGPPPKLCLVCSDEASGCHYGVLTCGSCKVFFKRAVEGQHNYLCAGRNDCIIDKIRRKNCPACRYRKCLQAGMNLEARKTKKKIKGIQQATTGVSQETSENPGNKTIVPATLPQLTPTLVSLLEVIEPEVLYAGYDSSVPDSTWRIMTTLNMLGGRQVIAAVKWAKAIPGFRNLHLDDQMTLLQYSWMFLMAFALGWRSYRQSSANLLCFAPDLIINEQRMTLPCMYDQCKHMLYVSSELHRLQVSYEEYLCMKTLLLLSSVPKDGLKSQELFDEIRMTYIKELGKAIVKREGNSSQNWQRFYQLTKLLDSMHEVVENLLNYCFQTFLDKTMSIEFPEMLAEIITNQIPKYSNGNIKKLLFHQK
Protocol: as §1

Phospholipase A2 = experiment: inhibition of Phospholipase A2; assay type: biochemical; settings: 0.5% DMSO
Protocol: as §1

B cell = B cell proliferation in the presence of LPS; assay type: cell-based
P56^lck tyrosine kinase = P56^lck tyrosine kinase (Homo sapiens, UniProt P06239); experiment: inhibition of P56^lck tyrosine kinase; assay type: biochemical; settings: 0.5% DMSO
Protocol: as §1

5-lipoxygenase = biological target: T2, 5-lipoxygenase (Homo sapiens, UniProt P09917); experiment: inhibition of 5-lipoxygenase; assay type: biochemical; settings: 0.5% DMSO
T2 sequence (P09917 1-674): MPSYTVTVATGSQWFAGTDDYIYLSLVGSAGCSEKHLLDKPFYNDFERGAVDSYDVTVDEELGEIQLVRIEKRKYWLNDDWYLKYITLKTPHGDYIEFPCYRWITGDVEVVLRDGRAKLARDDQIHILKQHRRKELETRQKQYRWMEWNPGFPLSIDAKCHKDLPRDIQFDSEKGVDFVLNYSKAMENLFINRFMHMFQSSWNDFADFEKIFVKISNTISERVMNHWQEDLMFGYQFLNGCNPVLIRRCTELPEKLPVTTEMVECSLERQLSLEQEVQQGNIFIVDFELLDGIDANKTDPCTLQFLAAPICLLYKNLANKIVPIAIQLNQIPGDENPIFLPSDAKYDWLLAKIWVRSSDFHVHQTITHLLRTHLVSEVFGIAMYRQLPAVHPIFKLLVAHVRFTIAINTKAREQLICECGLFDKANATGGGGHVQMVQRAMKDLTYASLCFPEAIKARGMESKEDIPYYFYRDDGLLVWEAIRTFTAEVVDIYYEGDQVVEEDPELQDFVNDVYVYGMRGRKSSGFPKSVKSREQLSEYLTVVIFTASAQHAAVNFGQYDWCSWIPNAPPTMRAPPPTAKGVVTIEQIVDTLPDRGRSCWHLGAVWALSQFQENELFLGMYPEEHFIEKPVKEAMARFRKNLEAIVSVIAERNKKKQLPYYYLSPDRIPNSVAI
Protocol: as §1

Sequence of EGF tyrosine kinase (P00533 25-1210): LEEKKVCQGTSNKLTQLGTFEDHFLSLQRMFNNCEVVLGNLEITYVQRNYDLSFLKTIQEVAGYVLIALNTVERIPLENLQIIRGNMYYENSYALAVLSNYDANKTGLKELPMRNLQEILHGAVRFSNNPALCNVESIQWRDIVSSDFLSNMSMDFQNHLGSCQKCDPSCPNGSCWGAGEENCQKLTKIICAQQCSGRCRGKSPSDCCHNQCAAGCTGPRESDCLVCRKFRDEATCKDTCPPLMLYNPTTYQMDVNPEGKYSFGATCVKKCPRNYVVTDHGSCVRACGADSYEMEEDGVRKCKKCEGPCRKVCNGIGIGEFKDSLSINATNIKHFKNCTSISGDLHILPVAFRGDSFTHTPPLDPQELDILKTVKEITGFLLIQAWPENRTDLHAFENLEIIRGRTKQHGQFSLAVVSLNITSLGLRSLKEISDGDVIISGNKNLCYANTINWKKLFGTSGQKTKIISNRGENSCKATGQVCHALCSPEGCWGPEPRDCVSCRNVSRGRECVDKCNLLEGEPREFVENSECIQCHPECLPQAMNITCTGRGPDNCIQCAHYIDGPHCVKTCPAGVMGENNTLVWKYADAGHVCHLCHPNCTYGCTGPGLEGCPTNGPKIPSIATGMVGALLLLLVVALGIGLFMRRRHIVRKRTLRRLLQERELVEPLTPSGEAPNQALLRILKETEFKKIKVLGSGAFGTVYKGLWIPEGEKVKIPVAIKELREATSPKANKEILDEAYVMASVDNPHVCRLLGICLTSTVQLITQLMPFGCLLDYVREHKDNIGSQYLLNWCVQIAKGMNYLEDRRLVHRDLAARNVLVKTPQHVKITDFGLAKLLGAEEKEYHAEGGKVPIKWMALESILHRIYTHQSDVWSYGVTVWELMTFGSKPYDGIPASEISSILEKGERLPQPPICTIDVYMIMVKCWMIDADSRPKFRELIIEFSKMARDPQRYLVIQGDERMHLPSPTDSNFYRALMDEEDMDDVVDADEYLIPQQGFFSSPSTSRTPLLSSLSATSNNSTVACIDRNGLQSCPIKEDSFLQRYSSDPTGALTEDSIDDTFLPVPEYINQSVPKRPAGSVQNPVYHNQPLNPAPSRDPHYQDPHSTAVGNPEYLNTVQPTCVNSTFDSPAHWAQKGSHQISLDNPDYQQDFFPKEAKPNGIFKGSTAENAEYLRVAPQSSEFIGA
Sequence of histamine H1 binding sites (P35367 whole entry): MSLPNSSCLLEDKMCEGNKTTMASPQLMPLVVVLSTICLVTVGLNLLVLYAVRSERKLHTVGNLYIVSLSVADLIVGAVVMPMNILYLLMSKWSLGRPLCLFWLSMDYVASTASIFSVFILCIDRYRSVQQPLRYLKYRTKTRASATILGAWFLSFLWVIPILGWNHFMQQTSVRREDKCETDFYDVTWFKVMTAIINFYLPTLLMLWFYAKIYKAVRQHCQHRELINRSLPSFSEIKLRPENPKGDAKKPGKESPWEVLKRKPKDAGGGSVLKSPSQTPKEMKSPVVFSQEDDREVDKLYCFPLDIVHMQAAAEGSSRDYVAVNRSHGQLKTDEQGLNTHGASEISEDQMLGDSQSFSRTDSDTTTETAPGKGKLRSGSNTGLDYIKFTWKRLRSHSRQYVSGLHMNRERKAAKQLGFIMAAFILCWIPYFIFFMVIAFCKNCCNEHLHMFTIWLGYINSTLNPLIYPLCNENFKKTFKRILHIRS
Sequence of P59^fyn tyrosine kinase (P06241 whole entry): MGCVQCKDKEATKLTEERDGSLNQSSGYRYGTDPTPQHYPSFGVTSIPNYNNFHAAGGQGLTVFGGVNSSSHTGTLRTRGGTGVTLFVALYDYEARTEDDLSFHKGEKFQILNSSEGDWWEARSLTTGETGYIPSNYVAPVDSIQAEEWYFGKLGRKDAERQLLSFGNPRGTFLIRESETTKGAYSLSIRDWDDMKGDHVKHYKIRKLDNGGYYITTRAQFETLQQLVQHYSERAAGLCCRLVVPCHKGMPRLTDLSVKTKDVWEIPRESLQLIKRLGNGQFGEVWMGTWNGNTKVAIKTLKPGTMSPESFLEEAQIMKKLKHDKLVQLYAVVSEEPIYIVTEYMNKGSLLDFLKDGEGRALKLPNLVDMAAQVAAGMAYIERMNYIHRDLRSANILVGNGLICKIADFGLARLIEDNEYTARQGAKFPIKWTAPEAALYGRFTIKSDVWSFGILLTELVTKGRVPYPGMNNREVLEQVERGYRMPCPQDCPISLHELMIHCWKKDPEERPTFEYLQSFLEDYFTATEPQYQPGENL
Sequence of PAF binding sites (P25105 whole entry): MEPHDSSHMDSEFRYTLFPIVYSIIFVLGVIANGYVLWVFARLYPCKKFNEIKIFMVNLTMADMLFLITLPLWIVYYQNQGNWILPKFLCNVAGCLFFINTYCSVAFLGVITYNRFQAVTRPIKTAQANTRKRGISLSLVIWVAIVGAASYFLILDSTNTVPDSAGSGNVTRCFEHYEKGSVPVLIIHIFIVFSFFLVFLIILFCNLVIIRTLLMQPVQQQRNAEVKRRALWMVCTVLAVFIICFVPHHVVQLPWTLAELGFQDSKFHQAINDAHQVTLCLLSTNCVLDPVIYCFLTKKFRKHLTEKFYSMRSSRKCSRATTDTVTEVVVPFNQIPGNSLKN
Sequence of P56^lck tyrosine kinase (P06239 whole entry): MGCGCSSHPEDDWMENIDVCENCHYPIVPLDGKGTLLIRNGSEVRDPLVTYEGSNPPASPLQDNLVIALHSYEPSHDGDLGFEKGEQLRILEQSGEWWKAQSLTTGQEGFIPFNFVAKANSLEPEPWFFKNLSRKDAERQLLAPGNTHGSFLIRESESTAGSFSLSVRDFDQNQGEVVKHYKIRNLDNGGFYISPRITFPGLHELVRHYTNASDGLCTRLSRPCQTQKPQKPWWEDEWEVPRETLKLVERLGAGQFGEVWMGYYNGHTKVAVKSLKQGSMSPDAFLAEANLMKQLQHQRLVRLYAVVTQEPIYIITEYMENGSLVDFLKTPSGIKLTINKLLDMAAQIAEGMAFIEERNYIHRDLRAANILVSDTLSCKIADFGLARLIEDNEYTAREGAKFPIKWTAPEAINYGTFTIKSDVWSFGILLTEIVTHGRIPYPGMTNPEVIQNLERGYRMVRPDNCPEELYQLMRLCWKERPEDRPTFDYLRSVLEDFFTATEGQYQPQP

SMILES	IC50 (P59^fyn tyrosine kinase) [µM]	inhibition of de novo PAF-acetyltransferase ([1]; 0.1 to 8.3 μg/well)	inhibition of remodeling PAF-acetyltransferase ([2]; 0.1 μg/well)	inhibition of remodeling PAF-acetyltransferase ([2]; 8.3 μg/well)	inhibition of remodeling PAF-acetyltransferase ([2]; 25 μg/well)	selectivity for the remodeling pathway of PAF synthesis ([2]; versus de novo PAF-acetyltransferase)	IC50 (EGF tyrosine kinase) [µM]	IC50 (PAF binding sites) [µM]	IC50 [3] [µM]	T cell proliferation (T cell)	solubility (solubility in 0.5% DMSO)	IC50 (Cyclooxygenase) [µM]	IC50 [4] [µM]	IC50 (Phospholipase A2) [µM]	B cell proliferation (B cell)	IC50 (P56^lck tyrosine kinase) [µM]	IC50 (5-lipoxygenase) [µM]	inhibition of de novo PAF-acetyltransferase ([1]; 0.1 to 25 μg/well)	inhibition of remodeling PAF-acetyltransferase ([2]; 0.9 to 0.1 μg/well) [%]
CCC(C)C=C(C)C1C(C)=CC2(C)CC(C)CCC2C1C(=O)C1=CC(O)(Cc2ccc(O)cc2)NC1=O (centres unmarked) [Compound 1494]	~3	no significant inhibition	about 12%	about 71%	about 65%	selective modulator of the remodeling pathway of PAF synthesis	~3	~3	~3	T cell proliferation	partial solubility	~300	~3	~100	stimulated B cell proliferation	~3	~10	–	–
CCC(C)C=C(C)C1C(C)=CC2(C)CC(C)CC(C)C2C1C(=O)C1=CC(O)(Cc2ccc(O)cc2)NC1=O (centres unmarked) [Compound 2158]	–	–	–	–	59%	–	–	–	–	–	–	–	–	–	–	–	–	No significant inhibition	0
